# Test results: patent US4166861A, “Pharmacologically active polyphenolic substances” (Inverni della Beffa S.p.A., priority 1976, dated 1979)
# Where two headings read alike, the source gives them in different places.
# Key:
# [1] = Choleretic activity in the rat, oral administration (bile volume and dry residue); assay type: in vivo, Sprague Dawley rats; settings: 200 mg/kg per os; for Bile Volume 2 Hours after Treatment / Dry Residue 2 Hours after Treatment / Bile Volume 3 Hours after Treatment / Dry Residue 3 Hours after Treatment: awake rat
# Experimental: (§1) The choleretic activity was determined in accordance with the technique described by R. Lambert in "Surgery of the Digestive System in the Rat" 1965. Sprague Dawley rats of mean weight of 230 g. were used. The products were injected intraperitoneally at the dosage of 100 mg/kg., the volume of the bile and the corresponding dry residue being measured then from 1 hour to 4 hours after administration. […] These increases are significant.
# 1. Choleretic Activity--Oral Administration
# The choleretic activities of catechin and epicatechin were determined in the manner described in paragraph A above except that the substances under test were administered per os at the rate of 200 mg./kg.
# [2] = Choleretic activity in the rat, intraperitoneal administration (bile volume and dry residue); assay type: in vivo, Sprague Dawley rats; settings: for Bile Volume 3 Hours after Treatment / Dry Residue 3 Hours after Treatment / increase of the dry residue of the bile in comparison with the basal values / increase of the volume of the bile in comparison with the basal values: 100 mg/kg i.p.; for Bile Volume 3 Hours after Treatment / Dry Residue 3 Hours after Treatment: awake rat; for choleretic action (in words): Table 2, 100 mg/kg i.p., bile volume and dry residue three hours after treatment; for increase of the dry residue of the bile in comparison with the basal values / increase of the volume of the bile in comparison with the basal values: measured from 1 hour to 4 hours after administration
# Experimental: as §1
# 2. Choleretic Activity--Intra-Peritoneal Administration
# The choleretic activities of catechin and catechin pentacetyl ferulate were determined in the manner described in paragraph A above.
# [3] = Toxicity (LD50); assay type: in vivo; settings: for LD50: in vivo
# [4] = Olive oil-induced hyperlipaemia in the rat (plasma triglycerides); assay type: in vivo, Sprague Dawley rats; settings: for Triglycerides: 100 mg/kg per os, controls (water) 171.5±18.6; for hypolipaemic effect (in words): Table 3, 100 mg/kg per os; for diminution of the concentration of triglycerides in the plasma in comparison with the controls: 100 mg/kg orally, two treatments, 2 h before and 2 h after olive oil, significant
# Experimental: The hyperlipaemic activity was determined in Sprague Dawley rats of mean weight of 160 g., in which hyperlipaemia was induced by means of administration of 20 ml./kg. of olive oil orally in animals which had been fasting for 16 hours. Two treatments were effected with the products under examination (upon groups of 18 animals), the first two hours before the olive oil, the second two hours afterwards. The doses were administered orally and were equal to 100 mg./kg.
# 3. Hypolipaemic Effect--Effect on Olive Oil-Induced Hyperlipaemia
# The hypolipaemic activity of catechin and epicatechin was determined in the manner described in paragraph B1 above.
# [5] = Triton hyperlipaemia in the rat (plasma cholesterol and triglycerides); assay type: in vivo, Sprague Dawley rats; settings: 100 mg/kg i.p. (50 mg/kg immediately after Triton, 50 mg/kg after 4 hours); significant
# Experimental: The products under examination were injected intraperitoneally at the dosage of 100 mg./kg. of which 50 mg./kg. immediately after the Triton and 50 mg./kg. after 4 hours. After a further 4 hours the animals were slaughtered and the cholesterol and triglycerides in the plasma were measured.
# [6] = Lipidic metabolism in the normally fed rat (plasma free fatty acids); assay type: in vivo, Sprague Dawley rats; settings: single dose 100 mg/kg i.p., after two hours; normolipaemic rats; significant
# Experimental: The tests were conducted on Sprague Dawley rats of mean weight of 200 g. which were normolipaemic and to which the products had been administered intraperitoneally in a single dose of 100 mg./kg. After two hours the animals were slaughtered and the free fatty acids in the plasma were measured.
# [7] = epicatechin compared with catechin
Structure (SMILES),Bile Volume 2 Hours after Treatment [1] [mL],Dry Residue 2 Hours after Treatment [1] [mg],Bile Volume 3 Hours after Treatment [1] [mL],Dry Residue 3 Hours after Treatment [1] [mg],Bile Volume 3 Hours after Treatment [2] [mL],Dry Residue 3 Hours after Treatment [2] [mg],choleretic action (in words) [2],Triglycerides [4] [mg/100 ml],hypolipaemic effect (in words) [4],increase of the dry residue of the bile in comparison with the basal values [2] [%],increase of the volume of the bile in comparison with the basal values [2] [%],diminution of the concentration of triglycerides in the plasma in comparison with the controls [4] [%],diminution of the concentration of cholesterol in the plasma in comparison with the controls [5] [%],diminution of the concentration of triglycerides in the plasma in comparison with the controls [5] [%],diminution of the concentration of free fatty acids in the plasma in comparison with the controls [6] [%],further results
"Oc1cc(O)c2c(c1)O[C@H](c1ccc(O)c(O)c1)[C@@H](O)C2 [Catechin, catechin, reference compound]",0.84 ± 0.02,18.2 ± 0.37,0.81 ± 0.03,16.6 ± 0.81,0.62 ± 0.08,10.0 ± 4.20,no statistically significant choleretic effect,120.7±17.6,no statistically significant hypolipaemic effect,,,,,,,"LD50 ([3]; ip, read-out: LD50 i.p.): > 1000 mg/kg; LD50 ([3]; po, per os, read-out: LD50 per os): > 2000 mg/kg"
"Oc1cc(O)c2c(c1)O[C@H](c1ccc(O)c(O)c1)[C@H](O)C2 [Epicatechin, epicatechin]",1.02 ± 0.07,18.1 ± 2.0,0.89 ± 0.09,16.5 ± 2.13,,,,98.6±12.0,marked hypolipaemic effect,35,38,42,,,,"choleretic activity (in words) [1, 7]: markedly higher choleretic activity than catechin; duration of choleretic effect (in words) [1, 7]: the choleretic effect is of longer duration"
"COc1cc(C=CC(=O)Oc2cc(OC(=O)C=Cc3ccc(OC(C)=O)c(OC)c3)c3c(c2)O[C@H](c2ccc(OC(=O)C=Cc4ccc(OC(C)=O)c(OC)c4)c(OC(=O)C=Cc4ccc(OC(C)=O)c(OC)c4)c2)[C@@H](OC(=O)C=Cc2ccc(OC(C)=O)c(OC)c2)C3)ccc1OC(C)=O [Catechin pentacetylferulate, catechin peracetylferulate]",,,,,0.88 ± 0.05,15.6 ± 0.60,marked choleretic action,,,36,64,,,,,LD50 i.p. ([3]; i.p.): > 1000 mg/kg
"CC(=O)Oc1cc(OC(C)=O)c2c(c1)O[C@H](c1ccc(OC(C)=O)c(OC(C)=O)c1)[C@@H](OC(C)=O)C2 [Example 4, Catechin pentaacetate]",,,,,,,,,,,,,16.3,23.1,,
CC1(C)Oc2ccc([C@H]3Oc4cc(O)cc(O)c4C[C@@H]3O)cc2O1 [catechin acetonide],,,,,,,,,,,,,,,25.8,
O=C(Oc1cc(OC(=O)c2cccnc2)c2c(c1)O[C@H](c1ccc(OC(=O)c3cccnc3)c(OC(=O)c3cccnc3)c1)[C@@H](OC(=O)c1cccnc1)C2)c1cccnc1 [pernicotinylcatechin],,,,,,,,,,,,27,21.1,28.7,13.1,
